Measurements from US20250296959A1, “B7-H3 TARGETING PEPTIDES AND CONSTRUCTS THEREOF” (Mariana Oncology Inc., priority 2024, published 2025).
Starred links: 1 amine or outer side, 2 acyl side, 3 side chain; linkers in the order of their positions; H or OH if unused. Positions of bridges follow the written chain, without caps; N, C: chain ends. Non-standard residues stand in square brackets, D forms with d. Residues, ends and D or L forms follow the SMILES beside them. ξ: configuration not given here. *: point of attachment. X2 = O=C(O)CN1CCN(CC(=O)O)CCN(CC(=O)NCCOCCOCCOCCOCC(=O)*)CCN(CC(=O)O)CC1; Ala(1-CH2CO2H-4-piperidyl) = N[C@@H](CC1CCN(CC(=O)O)CC1)C(=O)O; Ala(piperidin-4-yl) = O=C([C@H](CC1CCN([*:3])CC1)N[*:1])[*:2]; DOTA = O=C(O)CN1CCN(CC(=O)O)CCN(CC(=O)*)CCN(CC(=O)O)CC1; Phe(4-COOH) = N[C@@H](Cc1ccc(C(=O)O)cc1)C(=O)O; Trp(5-F) = N[C@@H](Cc1c[nH]c2ccc(F)cc12)C(=O)O; 1Nal = N[C@@H](Cc1cccc2ccccc12)C(=O)O; Ala(4-THP) = N[C@@H](CC1CCOCC1)C(=O)O; Val(3-OH) = CC(C)(O)[C@H](N)C(=O)O; 4Pal = N[C@@H](Cc1ccncc1)C(=O)O; Tle = CC(C)(C)[C@H](N)C(=O)O; hLeu = CC(C)CC[C@H](N)C(=O)O; hSer = N[C@@H](CCO)C(=O)O; Nle = CCCC[C@H](N)C(=O)O; Orn = NCCC[C@H](N)C(=O)O; ξP = O=C(O)C1CCCN1

What follows are compounds tested against T1, human 4lg B7-H3 (Homo sapiens, UniProt Q5ZPR3) (assay: Affinity determination by surface plasmon resonance (SPR) to 4Ig B7-H3). Conditions: SPR KD—25° C., 4Ig B7-H3; 25° C. flow cell temperature.
T1 sequence (Q5ZPR3 29-534): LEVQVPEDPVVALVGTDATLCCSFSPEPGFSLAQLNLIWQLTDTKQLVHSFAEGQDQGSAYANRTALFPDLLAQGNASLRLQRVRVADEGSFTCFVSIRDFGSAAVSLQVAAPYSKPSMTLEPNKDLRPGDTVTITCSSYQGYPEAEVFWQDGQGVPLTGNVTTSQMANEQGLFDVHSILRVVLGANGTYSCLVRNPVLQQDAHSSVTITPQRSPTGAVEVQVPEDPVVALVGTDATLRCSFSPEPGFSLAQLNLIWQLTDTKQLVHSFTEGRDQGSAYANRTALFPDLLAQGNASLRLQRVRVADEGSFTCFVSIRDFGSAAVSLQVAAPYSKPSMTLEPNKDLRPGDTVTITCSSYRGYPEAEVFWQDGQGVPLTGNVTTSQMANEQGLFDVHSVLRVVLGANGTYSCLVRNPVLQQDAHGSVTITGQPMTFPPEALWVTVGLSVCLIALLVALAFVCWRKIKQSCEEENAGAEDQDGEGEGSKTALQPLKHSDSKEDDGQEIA
Compound `CC(=O)N[C@@H](CCC(C)C)C(=O)N[C@@H](Cc1ccc(O)cc1)C(=O)N[C@H]1CSSC[C@@H](C(=O)N[C@@H](Cc2c[nH]c3ccc(F)cc23)C(=O)N[C@@H](Cc2ccccc2)C(=O)N2CCC[C@H]2C(=O)N[C@H](CCCCNC(=O)COCCOCCOCCOCCNC(=O)CN2CCN(CC(=O)O)CCN(CC(=O)O)CCN(CC(=O)O)CC2)C(=O)O)NC(=O)[C@H](Cc2ccc(O)cc2)NC(=O)[C@H](C(C)C)NC(=O)[C@H](CC(=O)O)NC(=O)[C@H](CC2CCOCC2)NC(=O)[C@H](CCCCN)NC(=O)CNC(=O)[C@H](C(C)(C)C)NC1=O` [compound 307, Ac-hLeu-Y-C-Tbg-G-K-ThpA-D-V-Y-C-5FW-F-Pro-dLys(PEG4-DOTA)-COOH] (Ac-[hLeu]YC[Tle]GK[Ala(4-THP)]DVYC[Trp(5-F)]FP[dK](X2)-OH; disulfide 3-11) has a Kd of 0.001 to 0.01 µM.
With `COc1ccc(C[C@@H]2NC(=O)[C@H](C(C)C)NC(=O)[C@H](CC(=O)O)NC(=O)[C@H](Cc3ccncc3)NC(=O)[C@H](CCCCNC(=O)CN3CCN(CC(=O)O)CCN(CC(=O)O)CCN(CC(=O)O)CC3)NC(=O)CNC(=O)[C@H](C(C)C)NC(=O)[C@@H](NC(=O)[C@H](Cc3ccc(O)cc3)NC(=O)[C@H](CCC(C)C)NC(C)=O)CSSC[C@@H](C(=O)N[C@@H](Cc3cccc4ccccc34)C(=O)N[C@@H](Cc3ccccc3)C(=O)N3CCCC3C(N)=O)NC2=O)cc1` (stereo partly drawn) [compound 309, Ac-hLeu-Y-C-V-G-Lys(DOTA)-4PyA-D-V-OMeTyr-C-1Nal-F-Pro-CONH2] (Ac-[hLeu]YCVGK(DOTA)[4Pal]DVY(Me)C[1Nal]F[ξP]-NH2; disulfide 3-11) the Kd was 0.001 to 0.01 µM.
In the case of `CC(=O)N[C@@H](CCC(C)C)C(=O)N[C@@H](Cc1ccc(O)cc1)C(=O)N[C@H]1CSSC[C@@H](C(=O)N[C@@H](Cc2c[nH]c3ccc(F)cc23)C(=O)N[C@@H](Cc2ccccc2)C(=O)N2CCC[C@H]2C(=O)N[C@H](CCCCNC(=O)CN2CCN(CC(=O)O)CCN(CC(=O)O)CCN(CC(=O)O)CC2)C(=O)O)NC(=O)[C@H](Cc2ccc(O)cc2)NC(=O)[C@H](C(C)C)NC(=O)[C@H](CC(=O)O)NC(=O)[C@H](CC2CCOCC2)NC(=O)[C@H](CCO)NC(=O)CNC(=O)[C@H](C(C)(C)C)NC1=O` [compound 311, Ac-hLeu-Y-C-Tbg-G-hSer-ThpA-D-V-Y-C-5FW-F-Pro-dLys(DOTA)-COOH] (Ac-[hLeu]YC[Tle]G[hSer][Ala(4-THP)]DVYC[Trp(5-F)]FP[dK](DOTA)-OH; disulfide 3-11), the Kd is reported as 0.001 to 0.01 µM.
Work on `CC(=O)N[C@@H](CCC(C)C)C(=O)N[C@@H](Cc1ccc(O)cc1)C(=O)N[C@H]1CSSC[C@@H](C(=O)N[C@@H](Cc2c[nH]c3ccc(F)cc23)C(=O)N[C@@H](Cc2ccccc2)C(=O)N2CCC[C@H]2C(=O)N[C@H](CCCCNC(=O)CN2CCN(CC(=O)O)CCN(CC(=O)O)CCN(CC(=O)O)CC2)C(=O)O)NC(=O)[C@H](Cc2ccc(O)cc2)NC(=O)[C@H](C(C)C)NC(=O)[C@H](CC(=O)O)NC(=O)[C@H](CC2CCOCC2)NC(=O)[C@H](CCCN)NC(=O)CNC(=O)[C@H](C(C)(C)C)NC1=O` [compound 312, Ac-hLeu-Y-C-Tbg-G-Orn-ThpA-D-V-Y-C-5FW-F-Pro-dLys(DOTA)-COOH] (Ac-[hLeu]YC[Tle]G[Orn][Ala(4-THP)]DVYC[Trp(5-F)]FP[dK](DOTA)-OH; disulfide 3-11) yielded a Kd of 0.001 to 0.01 µM.

Same assay, conditions: SPR KD—37° C., 4Ig B7-H3; 37° C. flow cell temperature
Work on `CC(=O)N[C@@H](CCC(C)C)C(=O)N[C@@H](Cc1ccc(O)cc1)C(=O)N[C@H]1CSSC[C@@H](C(=O)N[C@@H](Cc2c[nH]c3ccc(F)cc23)C(=O)N[C@@H](Cc2ccccc2)C(=O)N2CCC[C@H]2C(=O)N[C@H](CCCCNC(=O)CN2CCN(CC(=O)O)CCN(CC(=O)O)CCN(CC(=O)O)CC2)C(=O)O)NC(=O)[C@H](Cc2ccc(O)cc2)NC(=O)[C@H](C(C)C)NC(=O)[C@H](CC(=O)O)NC(=O)[C@H](Cc2ccc(C(=O)O)cc2)NC(=O)[C@H](CC2CCNCC2)NC(=O)CNC(=O)[C@H](C(C)C)NC1=O` [compound 313, Ac-hLeu-Y-C-V-G-PipAla-4COOHPhe-D-V-Y-C-5FW-F-Pro-dLys(DOTA)-COOH] (Ac-[hLeu]YCVG[Ala(piperidin-4-yl)][Phe(4-COOH)]DVYC[Trp(5-F)]FP[dK](DOTA)-OH; disulfide 3-11) yielded a Kd of less than 0.001 µM.
Compound `CC(=O)N[C@@H](CCC(C)C)C(=O)N[C@@H](Cc1ccc(O)cc1)C(=O)N[C@H]1CSSC[C@@H](C(=O)N[C@@H](Cc2cccc3ccccc23)C(=O)N[C@@H](Cc2ccccc2)C(=O)N2CCC[C@H]2C(=O)N[C@H](CCCCNC(=O)CN2CCN(CC(=O)O)CCN(CC(=O)O)CCN(CC(=O)O)CC2)C(N)=O)NC(=O)[C@H](Cc2ccc(O)cc2)NC(=O)[C@H](C(C)C)NC(=O)[C@H](CC(=O)O)NC(=O)[C@H](Cc2ccc(C(=O)O)cc2)NC(=O)[C@H](CC2CCNCC2)NC(=O)CNC(=O)[C@H](C(C)(C)C)NC1=O` [compound 315, Ac-hLeu-Y-C-Tbg-G-PipAla-4COOHPhe-D-V-Y-C-5FW-F-Pro-dLys(DOTA)-CONH2] (Ac-[hLeu]YC[Tle]G[Ala(piperidin-4-yl)][Phe(4-COOH)]DVYC[1Nal]FP[dK](DOTA)-NH2; disulfide 3-11) has a Kd of 0.001 to 0.01 µM.
`CC(=O)N[C@@H](CCC(C)C)C(=O)N[C@@H](Cc1ccc(O)cc1)C(=O)N[C@H]1CSSC[C@@H](C(=O)N[C@@H](Cc2c[nH]c3ccc(F)cc23)C(=O)N[C@@H](Cc2ccccc2)C(=O)N2CCC[C@H]2C(=O)N[C@H](CCCCNC(=O)CN2CCN(CC(=O)O)CCN(CC(=O)O)CCN(CC(=O)O)CC2)C(=O)O)NC(=O)[C@H](Cc2ccc(O)cc2)NC(=O)[C@H](C(C)C)NC(=O)[C@H](CC(=O)O)NC(=O)[C@H](CC2CCOCC2)NC(=O)[C@H](CC2CCN(CC(=O)O)CC2)NC(=O)CNC(=O)[C@H](C(C)(C)C)NC1=O` [compound 319, Ac-hLeu-Y-C-Tbg-G-[Pip(CH2CO2H)Ala]-ThpA-D-V-Y-C-5FW-F-Pro-dLys(DOTA)-COOH] (Ac-[hLeu]YC[Tle]G[Ala(1-CH2CO2H-4-piperidyl)][Ala(4-THP)]DVYC[Trp(5-F)]FP[dK](DOTA)-OH; disulfide 3-11) gave a Kd of 0.001 to 0.01 µM.
For `CC(=O)N[C@@H](CCC(C)C)C(=O)N[C@@H](Cc1ccc(O)cc1)C(=O)N[C@H]1CSSC[C@@H](C(=O)N[C@@H](Cc2c[nH]c3ccc(F)cc23)C(=O)N[C@@H](Cc2ccccc2)C(=O)N2CCC[C@H]2C(=O)N[C@H](CCCCNC(=O)CN2CCN(CC(=O)O)CCN(CC(=O)O)CCN(CC(=O)O)CC2)C(N)=O)NC(=O)[C@H](Cc2ccc(O)cc2)NC(=O)[C@H](C(C)C)NC(=O)[C@H](CC(=O)O)NC(=O)[C@H](Cc2ccc(C(=O)O)cc2)NC(=O)[C@H](CC2CCN(CC(=O)O)CC2)NC(=O)CNC(=O)[C@H](C(C)C)NC1=O` [compound 320, Ac-hLeu-Y-C-V-G-[Pip(CH2CO2H)Ala]-4COOHPhe-D-V-Y-C-5FW-F-Pro-dLys(DOTA)-CONH2] (Ac-[hLeu]YCVG[Ala(1-CH2CO2H-4-piperidyl)][Phe(4-COOH)]DVYC[Trp(5-F)]FP[dK](DOTA)-NH2; disulfide 3-11), the Kd was 0.001 to 0.01 µM.
`CCCC[C@H](NC(=O)[C@H](Cc1c[nH]c2ccc(F)cc12)NC(=O)[C@@H]1CSSC[C@H](NC(=O)[C@H](Cc2ccc(O)cc2)NC(=O)[C@H](CCC(C)C)NC(C)=O)C(=O)N[C@@H](C(C)(C)C)C(=O)NCC(=O)N[C@@H](CC2CCN(CC(=O)O)CC2)C(=O)N[C@@H](CC2CCOCC2)C(=O)N[C@@H](CC(=O)O)C(=O)N[C@@H](C(C)C)C(=O)N[C@@H](Cc2ccc(O)cc2)C(=O)N1)C(=O)N1CCC[C@H]1C(=O)N[C@H](CCCCNC(=O)CN1CCN(CC(=O)O)CCN(CC(=O)O)CCN(CC(=O)O)CC1)C(=O)O` [compound 321, Ac-hLeu-Y-C-Tbg-G-[Pip(CH2CO2H)Ala]-ThpA-D-V-Y-C-5FW-Nle-Pro-dLys(DOTA)-COOH] (Ac-[hLeu]YC[Tle]G[Ala(1-CH2CO2H-4-piperidyl)][Ala(4-THP)]DVYC[Trp(5-F)][Nle]P[dK](DOTA)-OH; disulfide 3-11) was tested, and the Kd was 0.01 to 0.1 µM.
Compound `CC[C@H](C)[C@@H]1NC(=O)[C@@H](NC(=O)[C@H](Cc2ccc(O)cc2)NC(=O)[C@H](CCC(C)C)NC(C)=O)CSSC[C@@H](C(=O)N[C@@H](Cc2c[nH]c3ccc(F)cc23)C(=O)N[C@@H](Cc2ccccc2)C(=O)N[C@H](C(=O)O)C(C)(C)O)NC(=O)[C@H](Cc2ccc(O)cc2)NC(=O)[C@H](C(C)C)NC(=O)[C@H](CC(=O)O)NC(=O)[C@H](CC2CCNCC2)NC(=O)[C@H](CCCCNC(=O)CN2CCN(CC(=O)O)CCN(CC(=O)O)CCN(CC(=O)O)CC2)NC(=O)CNC1=O` [compound 323, Ac-hLeu-Y-C-Ile-G-Lys(DOTA)-PipAla-D-V-Y-C-5FW-F-hydroxyVal-COOH] (Ac-[hLeu]YCIGK(DOTA)[Ala(piperidin-4-yl)]DVYC[Trp(5-F)]F[Val(3-OH)]-OH; disulfide 3-11) has a Kd of 0.001 to 0.01 µM.
`CC[C@H](C)[C@@H]1NC(=O)[C@@H](NC(=O)[C@H](Cc2ccc(O)cc2)NC(=O)[C@H](CCC(C)C)NC(C)=O)CSSC[C@@H](C(=O)N[C@@H](Cc2c[nH]c3ccc(F)cc23)C(=O)N[C@@H](Cc2ccccc2)C(=O)N[C@H](C(=O)O)C(C)(C)O)NC(=O)[C@H](Cc2ccc(O)cc2)NC(=O)[C@H](C(C)C)NC(=O)[C@H](CC(=O)O)NC(=O)[C@H](CC2CCN(CC(=O)O)CC2)NC(=O)[C@H](CCCCNC(=O)CN2CCN(CC(=O)O)CCN(CC(=O)O)CCN(CC(=O)O)CC2)NC(=O)CNC1=O` [compound 324, Ac-hLeu-Y-C-Ile-G-Lys(DOTA)-Pip(CH2COOH)Ala-D-V-Y-C-5FW-F-hydroxyVal-COOH] (Ac-[hLeu]YCIGK(DOTA)[Ala(1-CH2CO2H-4-piperidyl)]DVYC[Trp(5-F)]F[Val(3-OH)]-OH; disulfide 3-11) gave a Kd of 0.01 to 0.1 µM.
